From ChEMBL document CHEMBL1201862, “PubChem BioAssay data set” (2004)
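Compound exposure: 48 hours, 5 concentrations, 96-well plates. GI50: concentration for 50% inhibition of growth.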 Activity calls are given as the source filed them. Rule as the data show it: active = GI50 up to about 1.1 µM and inactive = higher.

How the values were obtained:
Experiment in all cases: inhibition of tumour cell growth, NCI panel, 48 h
SF-268 = system: SF-268
MDA-N = system: MDA-N
NCI-H226 = system: NCI-H226
T47D = system: T47D
SK-OV-3 = system: SK-OV-3
COLO 205 = system: COLO 205
SK-MEL-28 = system: SK-MEL-28
Malme-3M = system: Malme-3M
KM12 = system: KM12
A549 = system: A549
LOX IMVI = system: LOX IMVI
CAKI-1 = system: CAKI-1
SW-620 = system: SW-620
MOLT-4 = system: MOLT-4
CCRF-CEM = system: CCRF-CEM
SF-295 = system: SF-295
MDA-MB-231 = system: MDA-MB-231
SR = system: SR
PC-3 = system: PC-3
TK-10 = system: TK-10
HOP-92 = system: HOP-92
ACHN = system: ACHN
M14 = system: M14
UACC-62 = system: UACC-62
A498 = system: A498
SK-MEL-2 = system: SK-MEL-2
SN12C = system: SN12C
DU-145 = system: DU-145
UO-31 = system: UO-31
HCT-15 = system: HCT-15
OVCAR-3 = system: OVCAR-3
RXF 393 = system: RXF 393
NCI-H23 = system: NCI-H23
HT-29 = system: HT-29
HCT-116 = system: HCT-116
SNB-75 = system: SNB-75
MCF7 = system: MCF7
HOP-62 = system: HOP-62
OVCAR-8 = system: OVCAR-8
U-251 = system: U-251
IGROV-1 = system: IGROV-1
EKVX = system: EKVX
NCI-H522 = system: NCI-H522
BT-549 = system: BT-549
786-0 = system: 786-0
HL-60 = system: HL-60
SF-539 = system: SF-539
Hs-578T = system: Hs-578T
NCI/ADR-RES = system: NCI/ADR-RES
MDA-MB-435 = system: MDA-MB-435
K562 = system: K562
RPMI-8226 = system: RPMI-8226
UACC-257 = system: UACC-257
SK-MEL-5 = system: SK-MEL-5
HCC 2998 = system: HCC 2998
SNB-19 = system: SNB-19
NCI-H460 = system: NCI-H460
OVCAR-5 = system: OVCAR-5
OVCAR-4 = system: OVCAR-4

Measured: GI50

O=c1oc2ccccc2cc1-c1nc2ccc([N+](=O)[O-])cc2o1
inactive: SF-268 > 100 µM | MDA-N > 100 µM | NCI-H226 > 100 µM | T47D > 100 µM | SK-OV-3 > 100 µM | COLO 205 > 100 µM | SK-MEL-28 > 100 µM | Malme-3M > 100 µM | KM12 > 100 µM | A549 > 100 µM | LOX IMVI > 100 µM | CAKI-1 > 100 µM | SW-620 > 100 µM | MOLT-4 > 100 µM | CCRF-CEM > 100 µM | SF-295 83.4 µM | MDA-MB-231 > 100 µM | SR > 100 µM | PC-3 > 100 µM | TK-10 > 100 µM | HOP-92 > 100 µM | ACHN 30.1 µM | M14 > 100 µM | UACC-62 > 100 µM | A498 > 100 µM | SK-MEL-2 > 100 µM | SN12C > 100 µM | DU-145 > 100 µM | UO-31 > 100 µM | OVCAR-3 > 100 µM | RXF 393 > 100 µM | NCI-H23 > 100 µM | HT-29 67.6 µM | HCT-116 > 100 µM | SNB-75 > 100 µM | MCF7 83.8 µM | HOP-62 28.1 µM | OVCAR-8 > 100 µM | U-251 > 100 µM | IGROV-1 > 100 µM | EKVX > 100 µM | NCI-H522 > 100 µM | BT-549 > 100 µM | 786-0 > 100 µM | HL-60 > 100 µM | SF-539 65.2 µM | Hs-578T 84.9 µM | NCI/ADR-RES > 100 µM | MDA-MB-435 > 100 µM | K562 > 100 µM | RPMI-8226 > 100 µM | UACC-257 > 100 µM | SK-MEL-5 > 100 µM | HCC 2998 > 100 µM | SNB-19 30.2 µM | NCI-H460 > 100 µM
> 100 µM: HCT-15

Ic1ccc2c(c1)N(c1ccccc1)c1cc([N-]c3ccc4nc5ccc(I)cc5[n+](-c5ccccc5)c4c3)ccc1N2
inactive: SF-268 > 100 µM | MDA-N 37.6 µM | NCI-H226 > 100 µM | T47D 61.7 µM | SK-OV-3 > 100 µM | COLO 205 16.2 µM | SK-MEL-28 > 100 µM | Malme-3M 38 µM | KM12 44.2 µM | A549 > 100 µM | CAKI-1 > 100 µM | SW-620 51.9 µM | MOLT-4 68.9 µM | CCRF-CEM 15 µM | SF-295 > 100 µM | MDA-MB-231 23.7 µM | SR 32.6 µM | PC-3 55.7 µM | TK-10 > 100 µM | HOP-92 > 100 µM | ACHN > 100 µM | M14 26.9 µM | UACC-62 69.3 µM | A498 > 100 µM | OVCAR-5 > 100 µM | SK-MEL-2 > 100 µM | SN12C > 100 µM | DU-145 > 100 µM | UO-31 > 100 µM | OVCAR-4 > 100 µM | OVCAR-3 2.92 µM | RXF 393 > 100 µM | NCI-H23 41.3 µM | HT-29 14.8 µM | HCT-116 35 µM | SNB-75 > 100 µM | MCF7 26.4 µM | HOP-62 41.3 µM | OVCAR-8 > 100 µM | U-251 45.6 µM | IGROV-1 43.8 µM | EKVX 32.2 µM | NCI-H522 22.8 µM | BT-549 > 100 µM | 786-0 > 100 µM | HL-60 17.9 µM | SF-539 > 100 µM | Hs-578T > 100 µM | NCI/ADR-RES > 100 µM | MDA-MB-435 31.4 µM | K562 35 µM | RPMI-8226 32.1 µM | UACC-257 31.3 µM | SK-MEL-5 33.4 µM | HCC 2998 67.1 µM | SNB-19 > 100 µM | NCI-H460 42 µM
> 100 µM: HCT-15
